Read-outs that look alike come from different tables or passages of the source.
Assays:
[1] = target: T1, acetylcholinesterase from electric eel (Electrophorus electricus, UniProt O42275); test: biochemical
T1 construct: purchased Sigma
Procedure: (§1) The ability of all tested compounds to inhibit acetylcholinesterase from electric eel (Electrophorus electricus L.) and butyrylcholinesterase from equine serum (both purchased from Sigma) was tested. […] The IC50 values were determined by the spectrophotometric Ellman’s method.
(§2) The Ellman’s method is a simple, rapid and direct method to determine the SH and –S–S– group content in proteins. This method is widely used for measuring of cholinesterase activity and effectivity of cholinesterase inhibitors. Cholinesterase activity is measured indirectly by quantifying the concentration of 5-thio-2-nitrobenzoic acid (TNB) ion formed in the reaction between the thiol reagent 5,5′-dithiobis-2-nitrobenzoic acid (DTNB) and thiocholine, a product of substrate (i.e., acetylthiocholine, ATCh) hydrolysis by the cholinesterase. All tested compounds were dissolved in dioxane (concentration 0.01 M) and then diluted in demineralized water (concentration 0.001 M and 0.0001 M). The procedure of determination of IC50 is in detail described in [49]. For determination of IC50 values the inhibition was determined at 12 different compound concentrations with three replicates.

[2] = target: T2, butyrylcholinesterase from equine serum (Equus caballus, UniProt P81908); test: biochemical
T2 construct: butyrylcholinesterase isolated from equine serum; purchased Sigma; host or cells: equine serum
Procedure: as §1, §2

[3] = Partition coefficient log Kow (n-octanol/water), shake-flask method; format: physicochemical; conditions: mean ± SD (n = 3 experiments)
Procedure: Before the partition coefficient is determined, the two solvents are mutually saturated at the temperature of the experiment. To do this, it is practical to shake two large stock bottles, one containing n-octanol and a sufficient quantity of water, and the other containing water and a sufficient quantity of n-octanol, for 24 hours on a mechanical shaker and then to let them stand long enough to allow the phases to separate.
The procedure of determination was the following: n-Octanol (2 mL) was placed in a test tube. Then an octanol solution of the chosen inhibitor (15 μL, 0.01 M) was added. Mixture was intensively shaken for 15 min. This mixture (1 mL) was placed into the cell, and its absorbance at the absorption maximum wavelength was measured. The reference solution was n-octanol. The value of absorbance corresponding to 100% of the chosen inhibitor in n-octanol was obtained. An n-octanol solution of the chosen inhibitor (0.01 M, 15 μL) was added into the mixture of n-octanol and water (1:1, total volume 4 mL). The mixture was intensively shaken for 15 min and then centrifuged (3,000 rpm, 10 min). One mL of the n-octanol layer was put into the cell, and its absorbance at the wavelength of absorption maximum was measured. The comparative solution was n-octanol again. The percentage content of chosen inhibitor in the octanol layer (%) was obtained. The n-octanol/water partition coefficient is defined as Pow = c1/c2, where c1 and c2 are molar concentrations of tested compounds in n-octanol and water. For each compound, at least three determinations were performed.

[4] = electric eel AChE, Ellman's method, mean ± SD (n = 3 experiments), read-out: AChE IC50
[5] = equine serum BChE, Ellman's method, mean ± SD (n = 3 experiments), read-out: BChE IC50

T1 sequence (O42275 24-633): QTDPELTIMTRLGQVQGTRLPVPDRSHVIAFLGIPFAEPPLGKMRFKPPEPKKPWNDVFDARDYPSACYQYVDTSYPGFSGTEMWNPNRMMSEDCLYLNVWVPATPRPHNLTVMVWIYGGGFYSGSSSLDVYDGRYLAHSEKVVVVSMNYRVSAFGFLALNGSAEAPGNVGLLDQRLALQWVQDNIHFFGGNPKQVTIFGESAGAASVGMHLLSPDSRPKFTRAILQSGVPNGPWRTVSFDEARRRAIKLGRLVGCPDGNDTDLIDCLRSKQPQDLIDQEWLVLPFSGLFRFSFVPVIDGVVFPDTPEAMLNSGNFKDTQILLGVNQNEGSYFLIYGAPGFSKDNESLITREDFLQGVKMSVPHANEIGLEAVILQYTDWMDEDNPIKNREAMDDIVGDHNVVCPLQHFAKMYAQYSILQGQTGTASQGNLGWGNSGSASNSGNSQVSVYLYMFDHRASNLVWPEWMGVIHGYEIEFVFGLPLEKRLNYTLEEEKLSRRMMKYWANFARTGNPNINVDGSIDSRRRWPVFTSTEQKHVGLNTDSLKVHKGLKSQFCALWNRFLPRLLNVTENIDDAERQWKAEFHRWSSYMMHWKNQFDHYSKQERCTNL
T2 sequence (P81908 whole entry): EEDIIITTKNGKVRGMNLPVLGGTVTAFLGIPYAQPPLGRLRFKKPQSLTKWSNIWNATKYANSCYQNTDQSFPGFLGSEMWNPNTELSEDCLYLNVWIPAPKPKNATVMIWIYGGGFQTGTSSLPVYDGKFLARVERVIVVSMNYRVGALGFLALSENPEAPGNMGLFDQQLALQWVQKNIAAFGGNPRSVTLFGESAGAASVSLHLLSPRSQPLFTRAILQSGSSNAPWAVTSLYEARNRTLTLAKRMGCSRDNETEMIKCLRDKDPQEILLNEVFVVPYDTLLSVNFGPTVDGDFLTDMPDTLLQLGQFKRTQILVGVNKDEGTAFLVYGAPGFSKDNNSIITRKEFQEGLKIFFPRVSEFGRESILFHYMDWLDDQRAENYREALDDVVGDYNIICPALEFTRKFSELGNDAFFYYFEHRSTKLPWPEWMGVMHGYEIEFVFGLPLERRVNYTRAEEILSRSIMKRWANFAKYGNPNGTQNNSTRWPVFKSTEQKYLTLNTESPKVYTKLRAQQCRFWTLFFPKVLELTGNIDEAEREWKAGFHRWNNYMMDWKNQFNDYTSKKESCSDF

Compound `C[C@H](c1nc2ccc(F)cc2s1)N1C(=O)C(=O)N(c2ccccc2)C1=O` [Compound 3a, 1-[(1R)-1-(6-Fluoro-1,3-benzothiazol-2-yl)ethyl]-3-phenylimidazolidine-2,4,5-trione] has an IC50 [1, 4] of 21.4 ± 0.19 µM and an IC50 [2, 5] of 14.5 ± 0.21 µM.

For `C[C@H](c1nc2ccc(F)cc2s1)N1C(=O)C(=O)N(c2cccc(C(F)(F)F)c2)C1=O` [Compound 3b, 1-(3-Trifluoromethylphenyl)-3-[(1R)-1-(6-fluoro-1,3-benzothiazol-2-yl)ethyl]imidazolidine-2,4,5-trione], the IC50 [1, 4] was 23.4 ± 0.28 µM, the IC50 [2, 5] was 17.4 ± 0.37 µM and the “log Kow” value [3] was 1.12 ± 0.15.

In the case of `COc1ccc(N2C(=O)C(=O)N([C@H](C)c3nc4ccc(F)cc4s3)C2=O)cc1` [Compound 3c, 1-(4-Methoxyphenyl)-3-[(1R)-1-(6-fluoro-1,3-benzothiazol-2-yl)ethyl]imidazolidine-2,4,5-trione], the IC50 [1, 4] is reported as 22.4 ± 0.21 µM, the IC50 [2, 5] is reported as 13.2 ± 0.22 µM and the “log Kow” value [3] is reported as 0.69 ± 0.02.

`CC(C)c1ccc(N2C(=O)C(=O)N([C@H](C)c3nc4ccc(F)cc4s3)C2=O)cc1` [Compound 3d, 1-(4-Isopropylphenyl)-3-[(1R)-1-(6-fluoro-1,3-benzothiazol-2-yl)ethyl]imidazolidine-2,4,5-trione] gave an IC50 [1, 4] of 16.6 ± 0.29 µM and an IC50 [2, 5] of 1.66 ± 0.14 µM.

With `C[C@H](c1nc2ccc(F)cc2s1)N1C(=O)C(=O)N(c2ccc(Cl)cc2)C1=O` [Compound 3e, 1-(4-Chlorophenyl)-3-[(1R)-1-(6-fluoro-1,3-benzothiazol-2-yl)ethyl]imidazolidine-2,4,5-trione] the IC50 [1] was 13.8 ± 0.13 µM and the IC50 [2] was 25.7 ± 0.29 µM.

In the case of `C[C@H](c1nc2ccc(F)cc2s1)N1C(=O)C(=O)N(c2ccc(C#N)cc2)C1=O` [Compound 3f, 1-(4-Cyanophenyl)-3-[(1R)-1-(6-fluoro-1,3-benzothiazol-2-yl)ethyl]imidazolidine-2,4,5-trione], the IC50 [1, 4] is reported as 19.1 ± 0.27 µM, the IC50 [2, 5] is reported as 10.5 ± 0.18 µM and the “log Kow” value [3] is reported as 0.41 ± 0.02. For the same compound, the “log Kow” value ([3]; listed as 4f) was “lowest lipophilicity”.

In the case of `CC(C)c1cccc(C(C)C)c1N1C(=O)C(=O)N([C@H](C)c2nc3ccc(F)cc3s2)C1=O` [Compound 3g, 1-(2,6-Diisopropylphenyl)-3-[(1R)-1-(6-fluoro-1,3-benzothiazol-2-yl)ethyl]imidazolidine-2,4,5-trione], the IC50 [1, 4] is reported as 15.1 ± 0.29 µM, the IC50 [2, 5] is reported as 30.2 ± 0.45 µM and the “log Kow” value [3] is reported as 0.98 ± 0.08.

With `Cc1ccc(N2C(=O)C(=O)N([C@H](C)c3nc4ccc(F)cc4s3)C2=O)cc1Cl` [Compound 3h, 1-(3-Chloro-4-methylphenyl)-3-[(1R)-1-(6-fluoro-1,3-benzothiazol-2-yl)ethyl]imidazolidine-2,4,5-trione] the IC50 [1] was 15.5 ± 0.2 µM, the IC50 [2] was 17 ± 0.1 µM and the “log Kow” value [3] was 0.50 ± 0.02.

In the case of `C[C@H](c1nc2ccc(F)cc2s1)N1C(=O)C(=O)N(c2cc(Cl)cc(Cl)c2)C1=O` [Compound 3j, 1-(3,5-Dichlorophenyl)-3-[(1R)-1-(6-fluoro-1,3-benzothiazol-2-yl)ethyl]imidazolidine-2,4,5-trione], the IC50 [1] is reported as 17 ± 0.38 µM, the IC50 [2] is reported as 29.5 ± 0.39 µM and the “log Kow” value [3] is reported as 0.77 ± 0.03.

With `C[C@H](c1nc2ccc(F)cc2s1)N1C(=O)C(=O)N(Cc2ccccc2)C1=O` [Compound 3k, 1-Benzyl-3-[(1R)-1-(6-fluoro-1,3-benzothiazol-2-yl)ethyl]imidazolidine-2,4,5-trione] the IC50 [1, 4] was 18.6 ± 0.16 µM, the IC50 [2, 5] was 12.6 ± 0.11 µM and the “log Kow” value [3] was 1.06 ± 0.09.

— paper PMC6264296, “1,3-Substituted Imidazolidine-2,4,5-triones: Synthesis and Inhibition of Cholinergic Enzymes” (Molecules, 2011)
